Here are results for 23 compounds from ChEMBL document CHEMBL1759930, “Structural requirements of (E)-6-benzylidene-4a-methyl-4,4a,5,6,7,8-hexahydronaphthalen-2(3H)-one derivatives as novel melanogenesis inhibitors” (Bioorg Med Chem Lett, 2011).

For experiment [1], the system named is B16. The experiment can be described thus: Inhibition of alpha-MSH -stimulated melanogenesis in mouse B16 cells assessed as melanin release after 3 days. The experiment is classed as functional, cell-based. Particulars: B16, 72 h.
Experiment [2] relates to B16. The experiment in a line: Inhibition of alpha-MSH -stimulated melanogenesis in mouse B16 cells assessed as melanin release at 10 uM after 3 days. Particulars: B16, 72 h. The format is functional.

One may read the IC50 as the concentration needed to halve the response being measured. Broadly, the inhibition is the percentage by which the read-out fell short of the control.

A value given as a limit tells only on which side of the number the result lay.

As for `CC12CCC3(C=C1CC/C(=C\c1ccc(OCc4ccccc4)cc1)C2=O)SCCS3` (stereo not given), the IC50 with B16 [1] came out at 13.5 µM. Besides, the inhibition at 10 µM in the experiment with B16 [2] came to 80%.
Regarding `OC[C@H]1O[C@@H](Oc2ccc(O)cc2)[C@H](O)[C@@H](O)[C@@H]1O` [ARBUTIN], the IC50 with B16 [1] was determined as 120 µM.
On to `CC12CCC3(C=C1CC/C(=C\c1ccc(Cl)cc1)C2=O)SCCS3` (stereo not given), for which the IC50 in the experiment on B16 [1] was more than 30 µM. The inhibition at 10 µM with B16 [2] came to 35%.
With `CC1CCC/C(=C\c2ccccc2)C1=O` (stereo not given), in the experiment on B16 [1], the IC50 was more than 30 µM. Moreover, the inhibition at 10 µM in the experiment with B16 [2] was less than 10%.
In the case of `Cc1ccc(/C=C2\CCC3=CC(=O)CCC3(C)C2=O)cc1` (stereo not given), the IC50 in the experiment with B16 [1] is 23 µM. Further, the inhibition at 10 µM with B16 [2] is 60%.
As to `CC12CCC3(C=C1CC/C(=C\c1cccc4ccccc14)C2=O)SCCS3` (stereo not given), the IC50 in the experiment on B16 [1] worked out at 11.5 µM. For the same compound, in the experiment on B16 [2], the inhibition at 10 µM was 85%.
On to `COCOc1ccc(/C=C2\CCC3=CC4(CCC3(C)C2=O)SCCS4)cc1` (stereo not given), for which the IC50 with B16 [1] was found to be 6 µM. Further, the inhibition at 10 µM with B16 [2] was 92%.
For `COc1ccc(/C=C2\CCC3=CC4(CCC3(C)C2=O)SCCS4)cc1OC` (stereo not given) the same measures were more than 30 µM and 43%.
Turning to `CCc1ccc(/C=C2\CCC3=CC4(CCC3(C)C2=O)SCCS4)cc1` (stereo not given), in the experiment with B16 [1], the IC50 was 18.5 µM. For the same compound, the inhibition at 10 µM in the experiment with B16 [2] is 80%.
Turning to `Cc1ccc(/C=C2\CCC3=CC4(CCC3(C)C2=O)SCCS4)cc1` (stereo not given), the IC50 in the experiment on B16 [1] stood at 17.1 µM. In addition, the inhibition at 10 µM in the experiment with B16 [2] is more than 100%.
For `Cc1ccc(/C=C2\CCCC(C)C2=O)cc1` (stereo not given), the IC50 with B16 [1] is more than 30 µM. The inhibition at 10 µM with B16 [2] is less than 10%.
As to `CC12CCC3(C=C1CC/C(=C\C=C\c1ccccc1)C2=O)SCCS3` (stereo not given), the IC50 in the experiment on B16 [1] stood at 16.5 µM. Also, in the experiment on B16 [2], the inhibition at 10 µM was 75%.
For the compound `CC1CCC/C(=C\c2ccc(Cl)cc2)C1=O` (stereo not given), the IC50 in the experiment with B16 [1] is more than 30 µM. In the experiment with B16 [2], the inhibition at 10 µM is less than 10%.
In the same order, the values of `COc1ccc(/C=C2\CCC3=CC(=O)CCC3(C)C2=O)cc1` (stereo not given) are 6 µM and 72%.
With `CN(C)c1ccc(/C=C2\CCC3=CC4(CCC3(C)C2=O)SCCS4)cc1` (stereo not given), the IC50 with B16 [1] is 7.6 µM. Moreover, in the experiment on B16 [2], the inhibition at 10 µM stood at 65%.
On to `CC1CCC/C(=C\c2ccc(O)cc2)C1=O` (stereo not given), for which, in the experiment on B16 [1], the IC50 is more than 30 µM. In addition, the inhibition at 10 µM in the experiment with B16 [2] is less than 10%.
For `CC12CCC3(C=C1CCCC2=O)SCCS3` (stereo not given) the same measures were more than 30 µM and less than 10%.
In the case of `CC12CCC3(C=C1CC/C(=C\c1ccccc1)C2=O)SCCS3` (stereo not given), the IC50 in the experiment on B16 [1] is 10.5 µM. Also, in the experiment with B16 [2], the inhibition at 10 µM worked out at 85%.
Regarding `CC12CCC3(C=C1CC/C(=C\c1ccc(C(C)(C)C)cc1)C2=O)SCCS3` (stereo not given), the IC50 in the experiment with B16 [1] is 13.5 µM. Moreover, in the experiment with B16 [2], the inhibition at 10 µM is 83%.
For `CC12CCC3(C=C1CC/C(=C\c1ccc(O)cc1)C2=O)SCCS3` (stereo not given) the same measures were 4.3 µM and 96%.
For `COc1ccc(/C=C2\CCC3=CC4(CCC3(C)C2=O)SCCS4)cc1` (stereo not given) the same measures were 3.5 µM and more than 100%.
In the same order, the values of `CC12CCC3(C=C1CC/C(=C\c1ccc(Cl)c(Cl)c1)C2=O)SCCS3` (stereo not given) are 25.5 µM and 62%.
On to `COc1ccc(/C=C2\CCCC(C)C2=O)cc1` (stereo not given), for which the IC50 in the experiment with B16 [1] was more than 30 µM. Besides, in the experiment with B16 [2], the inhibition at 10 µM was less than 10%.
